# In patent US7459450B2, “Neuropeptide receptor modulators” (Schering Corporation, priority 2004, dated 2008):
# Biological target: T1, Human NPY Y1 receptors (Homo sapiens, UniProt P25929)
# T1 construct: expressed in transfected cells; host or cells: CHO cells (membrane protein)
# T1 sequence (P25929 1-384): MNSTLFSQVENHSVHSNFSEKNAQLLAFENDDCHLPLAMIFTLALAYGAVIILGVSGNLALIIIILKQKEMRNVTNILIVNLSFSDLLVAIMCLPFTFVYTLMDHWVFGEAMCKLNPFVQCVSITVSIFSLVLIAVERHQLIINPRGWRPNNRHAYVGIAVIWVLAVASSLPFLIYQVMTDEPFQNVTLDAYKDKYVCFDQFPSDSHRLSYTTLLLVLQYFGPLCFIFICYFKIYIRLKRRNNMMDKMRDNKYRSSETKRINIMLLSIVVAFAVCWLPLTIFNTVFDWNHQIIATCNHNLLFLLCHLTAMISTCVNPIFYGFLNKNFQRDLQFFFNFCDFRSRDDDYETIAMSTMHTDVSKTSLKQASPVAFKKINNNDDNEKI
# Assay: NPY Receptor Binding Assay
# Settings: Procedure E compounds, rated A/B/C
# Description: NPY Receptor Binding Assay
# Human NPY Y1 receptors were expressed in CHO cells. Binding assays were performed in 50 mM HEPES, pH 7.2, 2.5 mM CaCl2, 1 mM MgCl2 and 0.1% BSA containing 5-10 μg of membrane protein and 0.1 nM […] in a total volume of 200 μl. Non-specific binding was determined in the presence of 1 μM NPY. The reaction mixtures were incubated for 90 minutes at room temperature then filtered through Millipore MAFC glass fiber filter plates which had been pre-soaked in 0.5% polyethleneimine. The filters were washed with phosphate-buffered saline, and radioactivity was measured in a Packard TopCount scintillation counter.
row,SMILES,Ki
1,Cc1ccc2nc(NCCc3ccc(/N=C4/N[C@H](C)CS4)cc3)sc2c1 [Example 95],< 1000 nM
2,CC[C@@H]1CS/C(=N\c2ccc(CCNc3nc4ccc(C)cc4s3)cc2)N1 [Example 96],< 1000 nM
3,Cc1ccc2nc(NCCc3ccc(/N=C4/N[C@@H](Cc5c[nH]cn5)CS4)cc3)sc2c1 [Example 97],1000 to 10000 nM
4,CC(C)C[C@@H]1CS/C(=N\c2ccc(CCNc3nc4ccc(Cl)cc4s3)cc2)N1 [Example 100],1000 to 10000 nM
5,CCC1CS/C(=N\c2ccc(CCNc3nc4ccc(Cl)cc4s3)cc2)N1 (stereo not shown) [Example 103],1000 to 10000 nM
6,CCCC1CS/C(=N\c2ccc(CCNc3nc4ccc(Cl)cc4s3)cc2)N1 (stereo not shown) [Example 105],< 1000 nM
7,CCCCC1CS/C(=N\c2ccc(CCNc3nc4ccc(Cl)cc4s3)cc2)N1 (stereo not shown) [Example 106],1000 to 10000 nM
8,CC(C)[C@H]1CS/C(=N\c2ccc(CCNc3nc4ccc(Cl)cc4s3)cc2)N1 [Example 107],1000 to 10000 nM
9,C[C@@H]1CS/C(=N\c2ccc(CCNc3nc4ccc(Cl)cc4s3)cc2)N1 [Example 109],1000 to 10000 nM
10,CC[C@@H]1CS/C(=N\c2ccc(CCNc3nc4ccc(Cl)cc4s3)cc2)N1 [Example 110],< 1000 nM
11,CCCCC1CS/C(=N\c2ccc(CCNc3nc4ccc(S(C)(=O)=O)cc4s3)cc2)N1 (stereo not shown) [Example 111],1000 to 10000 nM
12,C[C@@H]1CS/C(=N\c2ccc(CCNc3nc4ccc(S(C)(=O)=O)cc4s3)cc2)N1 [Example 114],1000 to 10000 nM
13,CC[C@@H]1CS/C(=N\c2ccc(CCNc3nc4ccc(S(C)(=O)=O)cc4s3)cc2)N1 [Example 115],1000 to 10000 nM
14,CS(=O)(=O)c1ccc2nc(NCCc3ccc(/N=C4/N[C@@H](Cc5c[nH]cn5)CS4)cc3)sc2c1 [Example 116],1000 to 10000 nM
15,CS(=O)(=O)c1ccc2nc(NCCc3ccc(/N=C4/NC5(CCCC5)CS4)cc3)sc2c1 [Example 117],1000 to 10000 nM
16,CC1(C)CS/C(=N\c2ccc(CCNc3nc4ccc(S(C)(=O)=O)cc4s3)cc2)N1 [Example 118],1000 to 10000 nM
17,CC(C)C[C@@H]1CS/C(=N\c2ccc(CCNc3nc4ccccc4s3)cc2)N1 [Example 134],< 1000 nM
18,CC[C@@H]1CS/C(=N\c2ccc(CCNc3nc4ccc(F)cc4s3)cc2)N1 [Example 167],< 1000 nM
19,Fc1ccc2nc(NCCc3ccc(/N=C4/NC5(CCCC5)CS4)cc3)sc2c1 [Example 169],< 1000 nM
20,CN1CCS/C1=N/c1cccc(CCNc2nc3ccccc3s2)c1 [Example 182],> 10000 nM
21,c1ccc(/N=C2\N[C@H]3c4ccccc4CC3S2)c(CCNc2nc3ccccc3s2)c1 (stereo partly shown) [Example 183],> 10000 nM

row,SMILES,Ki
1,c1cc(CCNc2nc3ccccc3s2)cc(/N=C2\N[C@H]3c4ccccc4CC3S2)c1 (stereo partly shown) [Example 184],> 10000 nM
2,C[C@@H]1N/C(=N\c2cccc(CCNc3nc4ccccc4s3)c2)SC1c1ccccc1 (stereo partly shown) [Example 185],< 1000 nM
3,c1ccc(C2CN/C(=N\c3cccc(CCNc4nc5ccccc5s4)c3)S2)cc1 (stereo not shown) [Example 186],> 10000 nM
4,CC1CN/C(=N\c2cccc(CCNc3nc4ccccc4s3)c2)S1 (stereo not shown) [Example 187],> 10000 nM
5,Cc1cccc2sc(NCCc3ccc(/N=C4/NCC(c5ccccc5)S4)cc3)nc12 (stereo not shown) [Example 188],> 10000 nM
6,CC1CN/C(=N/c2ccc(CCNc3nc4ccc(S(C)(=O)=O)cc4s3)cc2)S1 (stereo not shown) [Example 189],> 10000 nM
7,CC1CN/C(=N/c2ccc(CCNc3nc4cc(Cl)c(Cl)cc4s3)cc2)S1 (stereo not shown) [Example 190],> 10000 nM
8,C[C@@H]1N/C(=N/c2ccc(CCNc3nc4ccccc4s3)cc2)SC1c1ccccc1 (stereo partly shown) [Example 191],> 10000 nM
9,c1ccc(C2CN/C(=N/c3ccc(CCNc4nc5ccccc5s4)cc3)S2)cc1 (stereo not shown) [Example 192],> 10000 nM
10,CC1CN/C(=N/c2ccc(CCNc3nc4ccccc4s3)cc2)S1 (stereo not shown) [Example 193],> 10000 nM
11,O=[N+]([O-])c1ccc2nc(NCCc3ccc(/N=C4/N[C@H]5c6ccccc6CC5S4)cc3)sc2c1 (stereo partly shown) [Example 194],> 10000 nM
12,c1ccc([C@@H]2CSC(Nc3ccc(CCNc4nc5ccccc5s4)cc3)=N2)cc1 [Example 196],< 1000 nM
13,c1ccc(CCC2CCSC(Nc3ccc(CCNc4nc5ccccc5s4)cc3)=N2)cc1 (stereo not shown) [Example 197],< 1000 nM
14,Clc1cccc(C2CCSC(Nc3ccc(CCNc4nc5ccccc5s4)cc3)=N2)c1 (stereo not shown) [Example 198],< 1000 nM
15,Clc1ccccc1C1CCSC(Nc2ccc(CCNc3nc4ccccc4s3)cc2)=N1 (stereo not shown) [Example 199],< 1000 nM
16,CC1CCSC(Nc2ccc(CCNc3nc4ccccc4s3)cc2)=N1 (stereo not shown) [Example 200],< 1000 nM
17,c1ccc2sc(NCCc3ccc(NC4=NC(C5CCCCC5)CCS4)cc3)nc2c1 (stereo not shown) [Example 201],< 1000 nM
18,c1ccc2sc(NCCc3ccc(N=C4NCCCS4)cc3)nc2c1 [Example 202],< 1000 nM
19,COc1ccc2nc(NCCc3ccc(/N=C4/NC(c5ccccc5)CCS4)cc3)sc2c1 (stereo not shown) [Example 203],< 1000 nM
20,Cc1ccc2nc(NCCc3ccc(/N=C4/NC(c5ccccc5)CCS4)cc3)sc2c1 (stereo not shown) [Example 204],< 1000 nM
21,Cc1ccc2nc(NCCc3ccc(N=C4NCCCS4)cc3)sc2c1 [Example 205],< 1000 nM

row,SMILES,Ki
1,COc1cccc2sc(NCCc3ccc(/N=C4/NC(c5ccccc5)CCS4)cc3)nc12 (stereo not shown) [Example 206],> 10000 nM
2,COc1cccc2sc(NCCc3ccc(/N=C4/NCCCS4)cc3)nc12 [Example 207],> 10000 nM
3,Cc1cccc2sc(NCCc3ccc(/N=C4/NC(c5ccccc5)CCS4)cc3)nc12 (stereo not shown) [Example 208],> 10000 nM
4,Cc1cccc2sc(NCCc3ccc(/N=C4/NCCCS4)cc3)nc12 [Example 209],> 10000 nM
5,Fc1ccc2nc(NCCc3ccc(/N=C4/NC(c5ccccc5)CCS4)cc3)sc2c1 (stereo not shown) [Example 210],< 1000 nM
6,Fc1ccc2nc(NCCc3ccc(/N=C4/NCCCS4)cc3)sc2c1 [Example 211],< 1000 nM
7,Clc1ccc2nc(NCCc3ccc(/N=C4/NC(c5ccccc5)CCS4)cc3)sc2c1 (stereo not shown) [Example 212],< 1000 nM
8,Clc1ccc2nc(NCCc3ccc(NC4=NCCCS4)cc3)sc2c1 [Example 213],< 1000 nM
9,CCCC1CS/C(=N\c2ccc(CCNc3nc4ccc(OC)cc4s3)cc2)N1 (stereo not shown) [Example 214],< 1000 nM
10,CCCCC1CS/C(=N\c2ccc(CCNc3nc4ccc(OC)cc4s3)cc2)N1 (stereo not shown) [Example 215],< 1000 nM
11,COc1ccc2nc(NCCc3ccc(/N=C4/N[C@@H](C(C)C)CS4)cc3)sc2c1 [Example 216],1000 to 10000 nM
12,COc1ccc2nc(NCCc3ccc(/N=C4/N[C@@H](c5ccccc5)CS4)cc3)sc2c1 [Example 217],> 10000 nM
13,COc1ccc2nc(NCCc3ccc(/N=C4/N[C@H](C)CS4)cc3)sc2c1 [Example 218],1000 to 10000 nM
14,CC[C@@H]1CS/C(=N\c2ccc(CCNc3nc4ccc(OC)cc4s3)cc2)N1 [Example 219],1000 to 10000 nM
15,COc1ccc2nc(NCCc3ccc(/N=C4/NC5(CCCC5)CS4)cc3)sc2c1 [Example 220],1000 to 10000 nM
16,COc1ccc2nc(NCCc3ccc(/N=C4/NC(C)(C)CS4)cc3)sc2c1 [Example 221],1000 to 10000 nM
17,Cc1ccc2nc(NCCc3ccc(/N=C4\SC5Cc6ccccc6[C@@H]5N4C)cc3)sc2c1 (stereo partly shown) [Example 222],> 10000 nM
18,Cc1ccc2nc(NCCc3ccc(/N=C4\SC5CCC[C@H]5N4C)cc3)sc2c1 (stereo partly shown) [Example 223],> 10000 nM
19,Cc1ccc2nc(NCCc3ccc(/N=C4\SC5Cc6ccccc6[C@@H]5N4C4CC4)cc3)sc2c1 (stereo partly shown) [Example 224],> 10000 nM
